Test results: patent US10301284B2, “Therapeutic inhibitory compounds” (LifeSci Pharmaceuticals, Inc., priority 2016, dated 2019)
Where two headings read alike, the source gives them in different places.

Tests used:
human Plasma Kallikrein [1] = target: T1, human Plasma Kallikrein (Homo sapiens (Human), UniProt P03952); assay: In vitro enzyme inhibition of human plasma kallikrein (Pro-Phe-Arg-AMC cleavage); type: biochemical; conditions: human plasma kallikrein, PFR-AMC substrate, 37° C.; read-out: hPK IC50
T1 sequence (P03952 391-638 limits assumed): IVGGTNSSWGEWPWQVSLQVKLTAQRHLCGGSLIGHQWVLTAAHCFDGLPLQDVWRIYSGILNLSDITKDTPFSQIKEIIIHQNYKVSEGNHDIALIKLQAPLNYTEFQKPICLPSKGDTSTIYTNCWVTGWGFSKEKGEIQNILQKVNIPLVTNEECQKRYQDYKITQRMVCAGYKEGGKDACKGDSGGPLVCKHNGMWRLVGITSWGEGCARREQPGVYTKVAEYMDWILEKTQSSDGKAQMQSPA
T1 sequence (P03952 20-390 partner limits assumed): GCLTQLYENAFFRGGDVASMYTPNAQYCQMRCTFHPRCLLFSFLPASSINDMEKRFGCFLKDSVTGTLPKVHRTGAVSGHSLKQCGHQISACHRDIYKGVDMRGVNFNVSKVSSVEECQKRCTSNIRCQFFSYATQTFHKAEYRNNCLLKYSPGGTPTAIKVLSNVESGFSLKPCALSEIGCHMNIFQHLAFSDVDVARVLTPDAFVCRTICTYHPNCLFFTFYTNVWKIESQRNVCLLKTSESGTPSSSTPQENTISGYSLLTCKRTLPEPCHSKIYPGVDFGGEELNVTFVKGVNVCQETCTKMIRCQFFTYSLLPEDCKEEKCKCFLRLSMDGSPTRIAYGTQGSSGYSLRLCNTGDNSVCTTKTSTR
In short: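 Human plasma kallikrein preincubated 5 min at 37 °C with compound in 50 mM Tris-HCl pH 7.5, 150 mM NaCl, 0.01% Triton X-100. Reaction started with Pro-Phe-Arg-AMC, fluorescence read every 43 s for 1 h at 37 °C. IC50 from highest mean velocity over 20 reads (~15 min).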

human Plasma Kallikrein [2] = target: T1, human Plasma Kallikrein; assay: Human whole blood kallikrein inhibition (ellagic acid-activated human plasma, Z-FR-2-AMC substrate); type: biochemical
In short: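 Platelet-depleted human plasma was activated with ellagic acid and diluted in 50 mM Tris-HCl pH 7.2, 150 mM NaCl, 0.01% Triton X-100, then preincubated 15 min at 37 °C. Compounds (0.076 nM–20 μM, duplicates) were added for 5 min at 37 °C. Z-FR-2-AMC (40 μM final) was read kinetically at ex 330/em 440 nm for 60 min, and IC50 was taken from a variable-slope fit.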

[3] = Pharmacokinetic evaluation, oral exposure in rats; type: in vivo; conditions: male Sprague-Dawley rats, single oral dose 10 mg/kg via oral gavage, plasma
In short: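 Male Sprague-Dawley rats dosed once at 10 mg/kg by oral gavage (2 mg/mL formulation). Jugular blood drawn pre-dose and from 5 min to 24 h post-dose; plasma compound levels measured by LC/MS/MS.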

[4] = human plasma activated with ellagic acid, Z-FR-2-AMC 40 μM, 37° C., read-out: HWB EC50

Compound	IC50 (human Plasma Kallikrein [1])	EC50 (human Plasma Kallikrein [2]; [4])	AUC ([3]; rat, read-out: AUC)	AUC [3]	EC50 (human Plasma Kallikrein [2])
Cc1cnc2c(C(N)=O)cc(Cn3cc(C(=O)NCc4c(C)cc(N)nc4C)c(C#N)n3)cc2c1 [Example 78, 6-((4-(((6-amino-2,4-dimethylpyridin-3-yl)methyl)carbamoyl)-3-cyano-1H-pyrazol-1-yl)methyl)-3-methylquinoline-8-carboxamide]	< 100 nM	< 100 nM	< 100 ng·h/mL		
Cc1cc(N)nc(C)c1CNC(=O)c1nc(Cc2ccc3ncc(Cl)cc3c2)n2ccccc12 [Example 9, N-((6-amino-2,4-dimethylpyridin-3-yl)methyl)-3-((3-chloroquinolin-6-yl)methyl)imidazo[1,5-a]pyridine-1-carboxamide]	< 100 nM	< 100 nM	100 to 1000 ng·h/mL		
N-((6-amino-2,4-dimethylpyridin-3-yl)methyl)-1-((3-chloroquinolin-6-yl)methyl)-3-cyano-1H-pyrazole-4-carboxamide [Example 26]	< 100 nM	100 to 1000 nM		B (>100 ng · h/mL to ≤1000 ng · h/mL)	
Cc1cc(N)nc(C)c1CNC(=O)c1cnc(Cc2ccc3ncc(Cl)cc3c2)[nH]1 [Example 5, N-((6-amino-2,4-dimethylpyridin-3-yl)methyl)-2-((3-chloroquinolin-6-yl)methyl)-1H-imidazole-5-carboxamide]	< 100 nM	< 100 nM		BLQ	
Cc1nc(N)ccc1CNC(=O)c1cn(Cc2ccc3ncc(C4CC4)cc3c2)nc1C#N [Example 66, N-((6-amino-2-methylpyridin-3-yl)methyl)-3-cyano-1-((3-cyclopropylquinolin-6-yl)methyl)-1H-pyrazole-4-carboxamide]	< 100 nM	< 100 nM	100 to 1000 ng·h/mL		
Cc1cc(N)nc(C)c1CNC(=O)c1ncc(Cc2ccc3ncc(Cl)cc3c2)o1 [Example 31, N-((6-amino-2,4-dimethylpyridin-3-yl)methyl)-5-((3-chloroquinolin-6-yl)methyl)oxazole-2-carboxamide]	< 100 nM	< 100 nM	1000 to 10000 ng·h/mL		
Cc1cc(N)nc(C)c1CNC(=O)c1nn(Cc2ccc3ncc(Cl)cc3c2)cc1C#N [Example 36, N-((6-amino-2,4-dimethylpyridin-3-yl)methyl)-1-((3-chloroquinolin-6-yl)methyl)-4-cyano-1H-pyrazole-3-carboxamide]	< 100 nM	< 100 nM	100 to 1000 ng·h/mL		
Cc1cc(N)nc(C)c1CNC(=O)c1cn(Cc2ccc3ncc(Cl)cc3c2)c2cnccc12 [Example 16, N-((6-amino-2,4-dimethylpyridin-3-yl)methyl)-1-((3-chloroquinolin-6-yl)methyl)-1H-pyrrolo[2,3-c]pyridine-3-carboxamide]	< 100 nM		100 to 1000 ng·h/mL		< 100 nM
Cc1nc(N)ccc1CNC(=O)c1cn(Cc2ccc3ncc(C(F)(F)F)cc3c2)nc1C#N [Example 74, N-((6-amino-2-methylpyridin-3-yl)methyl)-3-cyano-1-((3-(trifluoromethyl)quinolin-6-yl)methyl)-1H-pyrazole-4-carboxamide]	< 100 nM	< 100 nM	1000 to 10000 ng·h/mL		
Cc1cc(N)nc(C)c1CNC(=O)c1nn(Cc2ccc3ncc(Cl)cc3c2)cc1C(F)(F)F [Example 22, N-((6-amino-2,4-dimethylpyridin-3-yl)methyl)-1-((3-chloroquinolin-6-yl)methyl)-4-(trifluoromethyl)-1H-pyrazole-3-carboxamide]	< 100 nM	< 100 nM	100 to 1000 ng·h/mL		
Cc1cc(N)nc(C)c1CNC(=O)c1cn(Cc2ccc3ncc(Cl)cc3c2)c2cnc(C#N)cc12 [Example 134, N-((6-amino-2,4-dimethylpyridin-3-yl)methyl)-1-((3-chloroquinolin-6-yl)methyl)-5-cyano-1H-pyrrolo[2,3-c]pyridine-3-carboxamide]	< 100 nM			BLQ	< 100 nM
Cc1cc(N)nc(C)c1CNC(=O)c1nnc(Cc2ccc3ncc(Cl)cc3c2)o1 [Example 30, N-((6-amino-2,4-dimethylpyridin-3-yl)methyl)-5-((3-chloroquinolin-6-yl)methyl)-1,3,4-oxadiazole-2-carboxamide]	< 100 nM	< 100 nM	1000 to 10000 ng·h/mL		
Cc1cc(N)nc(C)c1CNC(=O)c1cn(Cc2ccc3ncc(Cl)cc3c2)c2ccncc12 [Example 35, N-((6-amino-2,4-dimethylpyridin-3-yl)methyl)-1-((3-chloroquinolin-6-yl)methyl)-1H-pyrrolo[3,2-c]pyridine-3-carboxamide]	< 100 nM			BLQ	< 100 nM
Cc1cc(N)nc(C)c1CNC(=O)c1cn(Cc2ccc3ncc(C(F)(F)F)cc3c2)nc1C#N [Example 73, N-((6-amino-2,4-dimethylpyridin-3-yl)methyl)-3-cyano-1-((3-(trifluoromethyl)quinolin-6-yl)methyl)-1H-pyrazole-4-carboxamide]	< 100 nM	< 100 nM	100 to 1000 ng·h/mL		
